Reference: ChEMBL document CHEMBL3632565, “The use of porcupine inhibitors to target Wnt-driven cancers” (Bioorg Med Chem Lett, 2015)

Key:
[1] = biological target: T1, Protein-serine O-palmitoleoyltransferase porcupine (Homo sapiens) (UniProt Q9H237); assay: (§1) Inhibition of porcupine in human HEK293 cells assessed as reduction in Wnt secretion by measuring suppression of beta-catenin reporter activity after 24 hrs by STF reporter assay; format: cell-based
T1 sequence (whole entry): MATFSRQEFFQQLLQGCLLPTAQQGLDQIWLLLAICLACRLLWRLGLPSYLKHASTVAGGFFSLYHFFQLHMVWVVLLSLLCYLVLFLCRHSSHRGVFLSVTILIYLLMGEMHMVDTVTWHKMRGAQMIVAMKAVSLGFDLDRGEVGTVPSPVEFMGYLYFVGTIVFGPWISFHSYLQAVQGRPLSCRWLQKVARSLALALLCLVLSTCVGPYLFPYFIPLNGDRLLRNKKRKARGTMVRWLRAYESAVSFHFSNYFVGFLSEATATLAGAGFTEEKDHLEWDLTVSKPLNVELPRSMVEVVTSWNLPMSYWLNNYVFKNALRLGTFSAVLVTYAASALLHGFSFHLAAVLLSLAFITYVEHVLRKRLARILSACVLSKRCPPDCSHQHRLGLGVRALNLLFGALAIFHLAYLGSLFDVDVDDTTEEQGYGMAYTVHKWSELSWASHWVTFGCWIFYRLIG

[2] = biological target: T2, Protein-serine O-palmitoleoyltransferase porcupine (Homo sapiens, UniProt Q9H237); assay: Inhibition of porcupine in human HEK293 cells by STF reporter assay; format: cell-based
T2 sequence (Q9H237 whole entry): T1 sequence (whole entry)

[3] = biological target: T2, Protein-serine O-palmitoleoyltransferase porcupine; assay: as §1; format: cell-based
[4] = biological target: T3, Protein-serine O-palmitoleoyltransferase porcupine (Mus musculus, UniProt Q9JJJ7); assay: Inhibition of mouse porcupine expressed in human HT1080 cells assessed as reduction in beta catenin reporter activity using firefly luciferase substrate STF reporter assay; format: cell-based, HT-1080
T3 sequence (Q9JJJ7 whole entry): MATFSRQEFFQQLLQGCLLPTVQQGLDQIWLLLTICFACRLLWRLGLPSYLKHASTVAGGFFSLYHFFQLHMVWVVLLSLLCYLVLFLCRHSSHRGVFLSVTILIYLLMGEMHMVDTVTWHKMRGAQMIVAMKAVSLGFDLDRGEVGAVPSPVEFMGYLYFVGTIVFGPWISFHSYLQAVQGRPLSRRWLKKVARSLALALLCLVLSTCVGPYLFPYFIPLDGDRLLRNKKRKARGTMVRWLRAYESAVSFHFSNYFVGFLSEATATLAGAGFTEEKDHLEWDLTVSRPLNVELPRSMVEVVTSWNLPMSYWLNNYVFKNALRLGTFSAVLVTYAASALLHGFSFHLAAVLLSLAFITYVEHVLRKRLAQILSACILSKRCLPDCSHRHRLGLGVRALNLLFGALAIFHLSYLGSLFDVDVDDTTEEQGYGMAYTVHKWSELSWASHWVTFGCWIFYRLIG

[5] = Inhibition of xenopus porcupine expressed in human HT1080 cells assessed as reduction in beta catenin reporter activity using firefly luciferase substrate STF reporter assay; format: cell-based; conditions: ht-1080
[6] = (§2) Antitumor activity against human HPAF2 cells xenografted in Balb/c mouse assessed as tumor growth inhibition at 100 mg/kg; format: functional; conditions: HPAF-II, read-out: TGI
HPAF-II = assay: as §2; format: functional
[7] = biological target: T1, Protein-serine O-palmitoleoyltransferase porcupine (Homo sapiens); assay: Binding affinity to porcupine (unknown origin)
[8] = biological target: T2, Protein-serine O-palmitoleoyltransferase porcupine; assay: Inhibition of porcupine activity (unknown origin) expressed in human HT1080 cells assessed as suppression of Wnt3A-mediated super top flash activity by STF luciferase assay; format: cell-based, HT-1080

C[C@@H](C(=O)Nc1ccc(-c2ccsc2)cc1)n1cnc2c1c(=O)n(C)c(=O)n2C
inhibition [1]: Dose-dependent effect

Cn1c(=O)c2c(nc3n2[C@H](CC(=O)Nc2ccc(-c4ccccc4)nn2)CC3)n(C)c1=O
IC50 [2]: 5 nM

C[C@H](C(=O)Nc1ccc(-c2ccsc2)cc1)n1cnc2c1c(=O)n(C)c(=O)n2C
IC50 [3]: 5400 nM

Cn1c(=O)c2c(ncn2CC(=O)Nc2ccc(-c3ccccc3)nn2)n(C)c1=O [ETC-159]
inhibition [1]: Dose-dependent effect | IC50 [4]: 18.1 nM | IC50 [5]: 70 nM | inhibition in vivo at 100 mg/kg [6]: 90% | TGI (HPAF-II): Dose-dependent effect

O=C(CNC(=O)c1nn(-c2ccccc2)c(=O)c2ccccc12)Nc1nccs1
Activity [7]: > 25 µM

Cc1cc(-c2ccc(CC(=O)Nc3ccc(-c4cccnc4)cc3)cc2)ccn1
IC50 [8]: 0.074 nM

COc1ccc(-n2nc(C(=O)NCC(=O)Nc3nc4ccc(OC)cc4s3)c3ccccc3c2=O)cc1
IC50 [8]: 60 nM

COc1ccc2nc(NC(=O)CNC(=O)c3ccc(=O)n(-c4ccccc4)c3)sc2c1
Activity [7]: > 25 µM
